Patent publication US9376376B2, “Substitute diphenylamine compounds use thereof as antitumor agents” (SINOCHEM CORPORATION, priority 2012, dated 2016)

Experiments:
lung cancer A549 cell = test: In vitro cell inhibition assay (MTT method), A549; format: cell-based, human; settings: 48 h incubation
leukemia HL-60 cells [1] = test: In vitro cell inhibition assay (MTT method), HL-60; format: cell-based, human; settings: 48 h
[2] = test system: non-small cell lung cancer A549 cells; test: In vitro cell inhibition assay, CCK-8 method, A549; format: cell-based, human; settings: for Proliferation inhibitory effect of the compounds on A549 cells (% of Control): 48 h incubation
Procedure: (§1) After the cell culture flasks gently shaking, culture fluid was discarded in clean bench. […] Cells were collected and transferred to centrifuge tube. For the non-adherent cells HL-60, CCRF-CEM and MOLT-4, cell flasks were picked up from incubator and then transferred to the centrifuge tubes directly. After cells were collected using centrifuge at 1000 rpm/min for 5 min, the fluid was discarded. Then cells were washed for one time by PBS, discard fluid. Then add some medium, count cells under inverted microscope using blood cell counting plate, according the counting number to making the density of adherent cell was 1×10^5 cells/mL, the non-adherent cell was 2×10^5 cells/mL (the volumes of HL-60, CCRF-CEM, MOLT-4 are smaller than non-adherent cells, these cells added to each well was much more higher). Add 50 μL aliquots to each well of 96-well plates (the density of adherent cells was 5000 cells/well, non-adherent cells was 10000 cells/well). Blank control, Negative control, blank control with compounds and positive control wells were grouped, and three replicate wells were used for each data point in the experiments. Then the cells were cultured in 5% incubator for overnight at 37° C., Then the different concentration compounds were added to each well. After incubation for 48 h, according to the manufacturer's instructions, CCK-8 reagent (10 μl) was added and incubation was continued for a further 2-4 h. The absorbance (A) of each well was read at 450 nm using a plate reader.

leukemia HL-60 cells [3] = test: In vitro cell inhibition assay, CCK-8 method, HL-60; format: cell-based, human; settings: for Proliferation inhibitory effect of the compounds on HL-60 cells (% of Control): CCK-8 method
Procedure: as §1

[4] = test system: non-small cell lung cancer NCI-H1650; test: In vitro cell inhibition assay, CCK-8 method, NCI-H1650; format: cell-based, human; settings: Non-small-cell carcinoma NCI-H1650, CCK-8 method; read-out: The half maximal inhibitory concentration (IC50)
Procedure: as §1, with “After incubation for 48 h, according to the manufacturer's instructions, CCK-8 reagent (10 μl) was added and incubation was continued for a further 2-4 h.” left out

[5] = test system: non-small cell lung cancer NCI-H358; test: In vitro cell inhibition assay, CCK-8 method, NCI-H358; format: cell-based, human; settings: Non-small-cell carcinoma NCI-H358, CCK-8 method; read-out: The half maximal inhibitory concentration (IC50)
Procedure: as §1, with “After incubation for 48 h, according to the manufacturer's instructions, CCK-8 reagent (10 μl) was added and incubation was continued for a further 2-4 h.” left out

leukemia CCRF-CEM = test: In vitro cell inhibition assay, CCK-8 method, CCRF-CEM; format: cell-based, human; settings: read-out: The half maximal inhibitory concentration (IC50)
Procedure: as §1, with “After incubation for 48 h, according to the manufacturer's instructions, CCK-8 reagent (10 μl) was added and incubation was continued for a further 2-4 h.” left out

leukemia MOLT-4 = test: In vitro cell inhibition assay, CCK-8 method, MOLT-4; format: cell-based, human; settings: leukemia MOLT-4, CCK-8 method; read-out: The half maximal inhibitory concentration (IC50)
Procedure: as §1, with “After incubation for 48 h, according to the manufacturer's instructions, CCK-8 reagent (10 μl) was added and incubation was continued for a further 2-4 h.” left out

colon cancer HT-29 = test: In vitro cell inhibition assay, CCK-8 method, HT-29; format: cell-based, human; settings: Colorectal Cancer HT-29, CCK-8 method; read-out: The half maximal inhibitory concentration (IC50)
Procedure: as §1, with “After incubation for 48 h, according to the manufacturer's instructions, CCK-8 reagent (10 μl) was added and incubation was continued for a further 2-4 h.” left out

pancreatic cancer BXPC-3 = test: In vitro cell inhibition assay, CCK-8 method, BXPC-3; format: cell-based, human; settings: pancreatic cancer BXPC-3, CCK-8 method; read-out: The half maximal inhibitory concentration (IC50)
Procedure: as §1, with “After incubation for 48 h, according to the manufacturer's instructions, CCK-8 reagent (10 μl) was added and incubation was continued for a further 2-4 h.” left out

hepatocarcinoma SK-HEP-1 = test: In vitro cell inhibition assay, CCK-8 method, SK-HEP-1; format: cell-based, human; settings: hepatocarcinoma SK-HEP-1, CCK-8 method; read-out: The half maximal inhibitory concentration (IC50)
Procedure: as §1, with “After incubation for 48 h, according to the manufacturer's instructions, CCK-8 reagent (10 μl) was added and incubation was continued for a further 2-4 h.” left out

cervical cancer Hela = test: In vitro cell inhibition assay, CCK-8 method, Hela; format: cell-based, human; settings: read-out: The half maximal inhibitory concentration (IC50)
Procedure: as §1, with “After incubation for 48 h, according to the manufacturer's instructions, CCK-8 reagent (10 μl) was added and incubation was continued for a further 2-4 h.” left out

bladder cancer T24 = test: In vitro cell inhibition assay, CCK-8 method, T24; format: cell-based, human; settings: bladder cancer T24, CCK-8 method; read-out: The half maximal inhibitory concentration (IC50)
Procedure: as §1, with “After incubation for 48 h, according to the manufacturer's instructions, CCK-8 reagent (10 μl) was added and incubation was continued for a further 2-4 h.” left out

prostate cancer DU-145 = test: In vitro cell inhibition assay, CCK-8 method, DU-145; format: cell-based, human; settings: Prostate cancer DU-145, CCK-8 method; read-out: The half maximal inhibitory concentration (IC50)
Procedure: as §1, with “After incubation for 48 h, according to the manufacturer's instructions, CCK-8 reagent (10 μl) was added and incubation was continued for a further 2-4 h.” left out

prostate cancer PC-3 = test: In vitro cell inhibition assay, CCK-8 method, PC-3; format: cell-based, human; settings: Prostate cancer PC-3, CCK-8 method; read-out: The half maximal inhibitory concentration (IC50)
Procedure: as §1, with “After incubation for 48 h, according to the manufacturer's instructions, CCK-8 reagent (10 μl) was added and incubation was continued for a further 2-4 h.” left out

osteosarcoma MG-63 = test: In vitro cell inhibition assay, CCK-8 method, MG-63; format: cell-based, human; settings: osteosarcoma MG-63, CCK-8 method; read-out: The half maximal inhibitory concentration (IC50)
Procedure: as §1, with “After incubation for 48 h, according to the manufacturer's instructions, CCK-8 reagent (10 μl) was added and incubation was continued for a further 2-4 h.” left out

breast cancer MDA-MB-231 = test: In vitro cell inhibition assay, CCK-8 method, MDA-MB-231; format: cell-based, human; settings: breast cancer MDA-MB-231, CCK-8 method; read-out: The half maximal inhibitory concentration (IC50)
Procedure: as §1, with “After incubation for 48 h, according to the manufacturer's instructions, CCK-8 reagent (10 μl) was added and incubation was continued for a further 2-4 h.” left out

[6] = test system: intracranial malignant melanoma A375; test: In vitro cell inhibition assay, CCK-8 method, A375; format: cell-based, human; settings: melanoma A375, CCK-8 method; read-out: The half maximal inhibitory concentration (IC50)
Procedure: as §1, with “After incubation for 48 h, according to the manufacturer's instructions, CCK-8 reagent (10 μl) was added and incubation was continued for a further 2-4 h.” left out

glioma U251 = test: In vitro cell inhibition assay, CCK-8 method, U251; format: cell-based, human; settings: glioma U251, CCK-8 method; read-out: The half maximal inhibitory concentration (IC50)
Procedure: as §1, with “After incubation for 48 h, according to the manufacturer's instructions, CCK-8 reagent (10 μl) was added and incubation was continued for a further 2-4 h.” left out

[7] = test system: nasopharyngeal carcinoma CNE; test: In vitro cell inhibition assay, CCK-8 method, CNE; format: cell-based, human; settings: read-out: The half maximal inhibitory concentration (IC50)
Procedure: as §1, with “After incubation for 48 h, according to the manufacturer's instructions, CCK-8 reagent (10 μl) was added and incubation was continued for a further 2-4 h.” left out

colon cancer COLO-205 = test: In vitro cell inhibition assay, CCK-8 method, COLO-205; settings: read-out: The half maximal inhibitory concentration (IC50); Colorectal Cancer COLO-205, CCK-8 method

In the case of `N#Cc1c(Cl)c(Cl)c(Nc2c(Cl)cc(Cl)cc2Cl)c(C#N)c1Cl` [Compound 6-93], the “Proliferation inhibitory effect of the compounds on A549 cell (% of Control)” value (lung cancer A549 cell; 0.01 μM) is reported as 12.1 % of Control, the “Proliferation inhibitory effect of the compounds on A549 cell (% of Control)” value (lung cancer A549 cell; 0.1 μM) is reported as 39.4 % of Control and the “Proliferation inhibitory effect of the compounds on A549 cell (% of Control)” value (lung cancer A549 cell; 1 μM) is reported as 74.8 % of Control. For the same compound, the “Proliferation inhibitory effect of the compounds on A549 cell (% of Control)” value (lung cancer A549 cell; 10 μM) was 80.3 % of Control, the “Proliferation inhibitory effect of the compounds on A549 cell (% of Control)” value (lung cancer A549 cell; 100 μM) was 98.2 % of Control and the “Proliferation inhibitory effect of the compounds on HL-60 cells (% of Control)” value (leukemia HL-60 cells [1]; concentration 0.01 μM) was 0 % of Control. The “Proliferation inhibitory effect of the compounds on HL-60 cells (% of Control)” value (leukemia HL-60 cells [1]; concentration 0.1 μM) was 51.8 % of Control, the “Proliferation inhibitory effect of the compounds on HL-60 cells (% of Control)” value (leukemia HL-60 cells [1]; concentration 1 μM) was 70.7 % of Control and the “Proliferation inhibitory effect of the compounds on HL-60 cells (% of Control)” value (leukemia HL-60 cells [1]; concentration 10 μM) was 72.3 % of Control. The “Proliferation inhibitory effect of the compounds on HL-60 cells (% of Control)” value (leukemia HL-60 cells [1]; concentration 100 μM) was 74.8 % of Control, the “Proliferation inhibitory effect of the compounds on A549 cells (% of Control)” value ([2]; CCK-8, 0.01 μM) was 14.77 % of Control and the “Proliferation inhibitory effect of the compounds on A549 cells (% of Control)” value ([2]; CCK-8, 0.1 μM) was 19.35 % of Control. For the same compound, the “Proliferation inhibitory effect of the compounds on A549 cells (% of Control)” value ([2]; CCK-8, 1 μM) was 70.04 % of Control, the “Proliferation inhibitory effect of the compounds on A549 cells (% of Control)” value ([2]; CCK-8, 10 μM) was 87.64 % of Control and the “Proliferation inhibitory effect of the compounds on A549 cells (% of Control)” value ([2]; CCK-8, 100 μM) was 98.18 % of Control. For the same compound, the IC50 ([2]; Non-small-cell carcinoma A549, CCK-8 method, read-out: The half maximal inhibitory concentration (IC50)) was 715 nM, the “Proliferation inhibitory effect of the compounds on HL-60 cells (% of Control)” value (leukemia HL-60 cells [3]; concentration 0.01 μM) was 30.19 % of Control and the “Proliferation inhibitory effect of the compounds on HL-60 cells (% of Control)” value (leukemia HL-60 cells [3]; concentration 0.1 μM) was 44.96 % of Control. The “Proliferation inhibitory effect of the compounds on HL-60 cells (% of Control)” value (leukemia HL-60 cells [3]; concentration 1 μM) was 82.05 % of Control, the “Proliferation inhibitory effect of the compounds on HL-60 cells (% of Control)” value (leukemia HL-60 cells [3]; concentration 10 μM) was 87.80 % of Control and the “Proliferation inhibitory effect of the compounds on HL-60 cells (% of Control)” value (leukemia HL-60 cells [3]; concentration 100 μM) was 93.71 % of Control. The IC50 (leukemia HL-60 cells [3]; leukemia HL-60, CCK-8 method, read-out: The half maximal inhibitory concentration (IC50)) was 85 nM, the IC50 [4] was 1370 nM and the IC50 [5] was 443 nM. The IC50 (leukemia CCRF-CEM) was under 10 nM, the IC50 (leukemia MOLT-4) was 167 nM and the IC50 (colon cancer HT-29) was 224 nM. For the same compound, the IC50 (pancreatic cancer BXPC-3) was 331 nM, the IC50 (hepatocarcinoma SK-HEP-1) was 489 nM and the IC50 (cervical cancer Hela) was 1510 nM. It also gave an IC50 (bladder cancer T24) of 603 nM, an IC50 (prostate cancer DU-145) of 646 nM and an IC50 (prostate cancer PC-3) of 1360 nM. It also gave an IC50 (osteosarcoma MG-63) of 196 nM, an IC50 (breast cancer MDA-MB-231) of 175 nM and an IC50 [6] of 160 nM. It also gave an IC50 (glioma U251) of 1620 nM, an IC50 [7] of 6080 nM and an IC50 (colon cancer COLO-205) of 125 nM.
